Source: patent publication US10689377B2 (Mirati Therapeutics, Inc., priority 2017, dated 2020)

molecular target: KRas G12C (Homo sapiens, UniProt P01116, G12C); assay: Cellular inhibition of KRas G12C measured by Phospho-ERK in NCI-H358 cells; format: cell-based; conditions: pERK(Thr202/Tyr204) normalized with GAPDH, NCI-H358 cells, 3 hours; read-out: IC50
Experimental: Cells were plated in poly-D-Lysine coated 96-well plates at a concentration of 50,000 cells/well and allowed to attach for 8-12 hours. Diluted compounds were then added at a final concentration of 0.5% DMSO. After 3 hours, the medium was removed, 150 μL of 4% formaldehyde was added and the plates were incubated for 20 minutes. The plates were washed with PBS, and permeabilized using 150 μL of ice cold 100% methanol for 10 minutes. Non-specific antibody binding to the plates was blocked using 100 μL Licor Blocking Buffer (Li-Cor Biotechnology, Lincoln Nebr.) for 1 hour at room temperature. Positive control samples and samples lacking cells were parallel processed with test samples as standards.
The amount Phospho-ERK was determined using an antibody specific for the phosphorylated form of ERK and compared to the amount of GAPDH. […] The plates were incubated for 2 hours at room temperature. The plates were washed with PBS+0.05% Tween 20.
Secondary antibodies used to visualize primary antibodies were added as follows: Anti-rabbit-680 diluted 1:1000 and Anti-mouse-800 diluted 1:1000 in Licor Block+0.05% Tween 20 and incubated for 1 hour at room temperature. The plates were washed with PBS+0.05% Tween 20. A 100 μL aliquot of PBS was added to each well and the plates were read on a LICOR AERIUS plate reader.
The pERK(Thr202/Tyr204) signal was normalized with the GAPDH signal and percent of DMSO control values were calculated. IC50 values were generated using a 4 parameter fit of the dose response curve. Key: “A”≥0.0001-≤1 μM; “B”>1 μM and ND=not determined.

KRas G12C, sequence (P01116 1-188 isoform P01116-2 G12C): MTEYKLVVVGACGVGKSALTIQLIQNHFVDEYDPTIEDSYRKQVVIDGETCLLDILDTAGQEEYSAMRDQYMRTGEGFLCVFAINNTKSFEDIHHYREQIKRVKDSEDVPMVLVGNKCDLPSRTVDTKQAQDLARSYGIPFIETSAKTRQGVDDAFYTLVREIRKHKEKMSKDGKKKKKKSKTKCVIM

| Structure (SMILES) | IC50 [nM] |
| --- | --- |
| C=CC(=O)N1CCN(c2nc(OC[C@@H]3CCCN3C)nc3c2CCN(c2cccc(C)c2C)C3)CC1CC#N (stereo partly drawn) [Example 228, 2-(1-acryloyl-4-(7-(2,3-dimethylphenyl)-2-(((S)-1-methylpyrrolidin-2-yl)methoxy)-5,6,7,8-tetrahydropyrido[3,4-d]pyrimidin-4-yl)piperazin-2-yl)acetonitrile] | 0.1 to 1000 |
| C=CC(=O)N1CCN(c2nc(OC[C@@H]3CCCN3CC)nc3c2CCN(c2cccc(Cl)c2C(F)(F)F)C3)C[C@@H]1CC#N [Example 339, 2-((S)-1-acryloyl-4-(7-(3-chloro-2-(trifluoromethyl)phenyl)-2-(((S)-1-ethylpyrrolidin-2-yl)methoxy)-5,6,7,8-tetrahydropyrido[3,4-d]pyrimidin-4-yl)piperazin-2-yl)acetonitrile] | 0.1 to 1000 |
| C=CC(=O)N1CCN(c2nc(OC[C@@H]3CCCN3C)nc3c2CCN(c2cccc4ccccc24)C3)C(CC#N)C1 (stereo partly drawn) [Example 439, 2-(4-acryloyl-1-(2-(((S)-1-methylpyrrolidin-2-yl)methoxy)-7-(naphthalen-1-yl)-5,6,7,8-tetrahydropyrido[3,4-d]pyrimidin-4-yl)piperazin-2-yl)acetonitrile] | > 1000 |
| C=CC(=O)N1CCN(c2nc(O[C@H](C)CN(C)C)nc3c2CCN(c2cc(O)cc4ccccc24)C3)CC1 [Example 19, (R)-1-(4-(2-((1-(dimethylamino)propan-2-yl)oxy)-7-(3-hydroxynaphthalen-1-yl)-5,6,7,8-tetrahydropyrido[3,4-d]pyrimidin-4-yl)piperazin-1-yl)prop-2-en-1-one] | 0.1 to 1000 |
| Cc1cccc2cccc(N3CCc4c(nc(OC[C@@H]5CC(F)(F)CN5C)nc4N4CCN(C(=O)/C=C/CF)[C@@H](CC#N)C4)C3)c12 [Example 601, 2-[(2S)-4-[2-[[(2S)-4,4-difluoro-1-methyl-pyrrolidin-2-yl]methoxy]-7-(8-methyl-1-naphthyl)-6,8-dihydro-5H-pyrido[3,4-d]pyrimidin-4-yl]-1-[(E)-4-fluorobut-2-enoyl]piperazin-2-yl]acetonitrile] | 0.1 to 1000 |
| C=CC(=O)N1CCN(c2nc(OC[C@H]3CCCC(=O)N3)nc3c2CCN(c2cc(O)cc4ccccc24)C3)CC1 (single isomer, unassigned) [Example 62] | > 1000 |
| C=CC(=O)N1C[C@H](C)N(c2nc(OC[C@@H]3CCCN3C)nc3c2CCN(c2cc(O)cc4ccccc24)C3)C[C@H]1C [Example 336, 1-[(2R,5S)-4-[7-(3-hydroxy-1-naphthyl)-2-[[(2S)-1-methylpyrrolidin-2-yl]methoxy]-6,8-dihydro-5H-pyrido[3,4-d]pyrimidin-4-yl]-2,5-dimethyl-piperazin-1-yl]prop-2-en-1-one] | 0.1 to 1000 |
| C=CC(=O)N1CCN(c2nc(O[C@H](C)CN3CC[C@@H](OC)C3)nc3c2CCN(c2cc(O)cc4ccccc24)C3)CC1 [Example 63, 1-(4-(7-(3-hydroxynaphthalen-1-yl)-2-(((R)-1-((R)-3-methoxypyrrolidin-1-yl)propan-2-yl)oxy)-5,6,7,8-tetrahydropyrido[3,4-d]pyrimidin-4-yl)piperazin-1-yl)prop-2-en-1-one] | > 1000 |
| C=CC(=O)N1CCN(c2nc(OC[C@@H]3CCC(=O)N3)nc3c2CCN(c2cc(O)cc4ccccc24)C3)CC1 [Example 57, (S)-5-(((4-(4-acryloylpiperazin-1-yl)-7-(3-hydroxynaphthalen-1-yl)-5,6,7,8-tetrahydropyrido[3,4-d]pyrimidin-2-yl)oxy)methyl)pyrrolidin-2-one] | > 1000 |
| Cc1cccc(N2CCc3c(nc(OC[C@@H]4CCCN4C)nc3N3CCN(C(=O)/C=C/CN4CCC(F)C4)[C@@H](CC#N)C3)C2)c1C (stereo partly drawn) [Example 476, 2-[(2S)-4-[7-(2,3-dimethylphenyl)-2-[[(2S)-1-methylpyrrolidin-2-yl]methoxy]-6,8-dihydro-5H-pyrido[3,4-d]pyrimidin-4-yl]-1-[(E)-4-(3-fluoropyrrolidin-1-yl)but-2-enoyl]piperazin-2-yl]acetonitrile] | 0.1 to 1000 |
| C=CC(=O)N1CCN(c2nc(OCC(O)CN3CCOCC3)nc3c2CCN(c2cc(O)cc4ccccc24)C3)CC1 (stereo not shown) [Example 123, 1-(4-(2-(2-hydroxy-3-morpholinopropoxy)-7-(3-hydroxynaphthalen-1-yl)-5,6,7,8-tetrahydropyrido[3,4-d]pyrimidin-4-yl)piperazin-1-yl)prop-2-en-1-one] | > 1000 |
| Cc1cccc2cccc(N3CCc4c(nc(OC[C@H]5C[C@@H](F)CN5C)nc4N4CCN(C(=O)/C=C/CO)[C@@H](CC#N)C4)C3)c12 [Example 522, 2-((S)-4-(2-(((2R,4R)-4-fluoro-1-methylpyrrolidin-2-yl)methoxy)-7-(8-methylnaphthalen-1-yl)-5,6,7,8-tetrahydropyrido[3,4-d]pyrimidin-4-yl)-1-((E)-4-hydroxybut-2-enoyl)piperazin-2-yl)acetonitrile] | 0.1 to 1000 |
| C=CC(=O)N1CCN(c2nc(OC[C@@H]3CCN(C)C3)nc3c2CCN(c2ccccc2C(F)(F)F)C3)CC1CC#N (stereo partly drawn) [Example 298, 2-(1-acryloyl-4-(2-(((R)-1-methylpyrrolidin-3-yl)methoxy)-7-(2-(trifluoromethyl)phenyl)-5,6,7,8-tetrahydropyrido[3,4-d]pyrimidin-4-yl)piperazin-2-yl)acetonitrile] | 0.1 to 1000 |
| C=CC(=O)N1CCN(c2nc(OC[C@@H]3C[C@@H](OC)CN3C)nc3c2CCN(c2cccc4ccccc24)C3)CC1CC#N (stereo partly drawn) [Example 381, 2-(1-acryloyl-4-(2-(((2S,4R)-4-methoxy-1-methylpyrrolidin-2-yl)methoxy)-7-(naphthalen-1-yl)-5,6,7,8-tetrahydropyrido[3,4-d]pyrimidin-4-yl)piperazin-2-yl)acetonitrile] | 0.1 to 1000 |
| C=CC(=O)N1C[C@@H](C)N(c2nc(OC[C@@H]3CCCN3C)nc3c2CCN(c2cccc4ccccc24)C3)C[C@@H]1CC#N [Example 378, 2-((2S,5R)-1-acryloyl-5-methyl-4-(2-(((S)-1-methylpyrrolidin-2-yl)methoxy)-7-(naphthalen-1-yl)-5,6,7,8-tetrahydropyrido[3,4-d]pyrimidin-4-yl)piperazin-2-yl)acetonitrile] | 0.1 to 1000 |

More lines, now with the values ahead:

| IC50 [nM] | Structure (SMILES) |
| --- | --- |
| 0.1 to 1000 | C=C(F)C(=O)N1CCN(c2nc(OC[C@H]3C[C@@H](OC)CN3C)nc3c2CCN(c2cccc4cccc(C)c24)C3)C[C@@H]1CC#N [Example 519, 2-[(2S)-1-(2-fluoroprop-2-enoyl)-4-[2-[[(2R,4R)-4-methoxy-1-methyl-pyrrolidin-2-yl]methoxy]-7-(8-methyl-1-naphthyl)-6,8-dihydro-5H-pyrido[3,4-d]pyrimidin-4-yl]piperazin-2-yl]acetonitrile] |
| > 1000 | C=CC(=O)N1CCN(c2nc(OC[C@@H]3CCCN3C)nc3c2CCN(c2ccncc2C)C3)C[C@@H]1CC#N [Example 345, 2-[(2S)-4-[7-(3-methyl-4-pyridyl)-2-[[(2S)-1-methylpyrrolidin-2-yl]methoxy]-6,8-dihydro-5H-pyrido[3,4-d]pyrimidin-4-yl]-1-prop-2-enoyl-piperazin-2-yl]acetonitrile] |
| > 1000 | C=CC(=O)N1CCN(c2nc(OC[C@@H]3CCCN3C)nc3c2CCN(c2c(Cl)ccc4[nH]ncc24)C3)CC1 [Example 250, 1-[4-[7-(5-chloro-1H-indazol-4-yl)-2-[[(2S)-1-methylpyrrolidin-2-yl]methoxy]-6,8-dihydro-5H-pyrido[3,4-d]pyrimidin-4-yl]piperazin-1-yl]prop-2-en-1-one] |
| > 1000 | C=CC(=O)N1CCN(c2nc(OCCN(C)CCO)nc3c2CCN(c2cc(O)cc4ccccc24)C3)CC1 [Example 83, 1-(4-(2-(2-((2-hydroxyethyl)(methyl)amino)ethoxy)-7-(3-hydroxynaphthalen-1-yl)-5,6,7,8-tetrahydropyrido[3,4-d]pyrimidin-4-yl)piperazin-1-yl)prop-2-en-1-one] |
| 0.1 to 1000 | C=C(F)C(=O)N1CCN(c2nc(OC[C@@H]3CCCN3C)nc3c2CCN(c2cccc4ccccc24)C3)C[C@@H]1CC#N [Example 602, 2-[(2S)-1-(2-fluoroprop-2-enoyl)-4-[2-[[(2S)-1-methylpyrrolidin-2-yl]methoxy]-7-(1-naphthyl)-6,8-dihydro-5H-pyrido[3,4-d]pyrimidin-4-yl]piperazin-2-yl]acetonitrile] |
| 0.1 to 1000 | C=CC(=O)N1CCN(c2nc(OCCCN3CCOCC3)nc3c2CCN(c2cccc4cccc(C)c24)C3)C[C@@H]1CC#N [Example 370, (S)-2-(1-acryloyl-4-(7-(8-methylnaphthalen-1-yl)-2-(3-morpholinopropoxy)-5,6,7,8-tetrahydropyrido[3,4-d]pyrimidin-4-yl)piperazin-2-yl)acetonitrile] |
| 0.1 to 1000 | C=CC(=O)N1CCN(c2nc(OC[C@@H]3CCCN3C)nc3c2CCN(c2ccc(F)cc2C(F)(F)F)C3)CC1CC#N (stereo partly drawn) [Example 413, 2-(1-acryloyl-4-(7-(4-fluoro-2-(trifluoromethyl)phenyl)-2-(((S)-1-methylpyrrolidin-2-yl)methoxy)-5,6,7,8-tetrahydropyrido[3,4-d]pyrimidin-4-yl)piperazin-2-yl)acetonitrile] |
